# Data as given in ChEMBL document CHEMBL2157998, “Synthesis and biological evaluation of new phenothiazine derivatives bearing a pyrazole unit as protein farnesyltransferase inhibitors” (Bioorg Med Chem Lett, 2012).
# Active and inactive are the calls of the source. The calls are words filed in the database; no cut-off is given here.
# Legend:
# [1] = biological target: Protein farnesyltransferase (Homo sapiens, UniProt P49354+P49356); assay: Inhibition of recombinant human FTase using dansyl-GCVLS as substrate at 100 uM after 15 mins by fluorimetric analysis; type: protein-complex assay
# EKVX = assay: Growth inhibition of human EKVX cells at 10 uM after 48 hrs by single dose SRB assay; type: functional; conditions: for inhibition of growth at 10 µM: read-out: GI
# SK-MEL-5 = assay: Growth inhibition of human SK-MEL-5 cells at 10 uM after 48 hrs by single dose SRB assay; type: functional
# HCT-15 = assay: Growth inhibition of human HCT15 cells at 10 uM after 48 hrs by single dose SRB assay; type: functional; conditions: for inhibition of growth at 10 µM: HCT-15, 48 h, read-out: GI
# MDA-MB-231 = assay: Growth inhibition of human MDA-MB-231 cells at 10 uM after 48 hrs by single dose SRB assay; type: functional
# SN12C = assay: Growth inhibition of human SN12C cells at 10 uM after 48 hrs by single dose SRB assay; type: functional; conditions: for inhibition of growth at 10 µM: read-out: GI
# OVCAR-3 = assay: Growth inhibition of human OVCAR3 cells at 10 uM after 48 hrs by single dose SRB assay; type: functional
# [2] = (§1) Growth inhibition of human […] cells at 10 uM after 48 hrs by single dose SRB assay; type: functional; conditions: read-out: GI
# HL-60(TB) = assay: Growth inhibition of human HL-60(TB) cells at 10 uM after 48 hrs by single dose SRB assay; type: functional; conditions: for inhibition of growth at 10 µM: HL-60, 48 h, read-out: GI
# MOLT-4 = assay: Growth inhibition of human MOLT4 cells at 10 uM after 48 hrs by single dose SRB assay; type: functional; conditions: for inhibition of growth at 10 µM: MOLT-4, 48 h, read-out: GI
# ACHN = assay: Growth inhibition of human ACHN cells at 10 uM after 48 hrs by single dose SRB assay; type: functional
# CCRF-CEM = assay: Growth inhibition of human CCRF-CEM cells at 10 uM after 48 hrs by single dose SRB assay; type: functional; conditions: for inhibition of growth at 10 µM: read-out: GI
# HT-29 = assay: Growth inhibition of human HT-29 cells at 10 uM after 48 hrs by single dose SRB assay; type: functional
# OVCAR-8 = assay: Growth inhibition of human OVCAR8 cells at 10 uM after 48 hrs by single dose SRB assay; type: functional
# CAKI-1 = assay: Growth inhibition of human Caki1 cells at 10 uM after 48 hrs by single dose SRB assay; type: functional; conditions: for inhibition of growth at 10 µM: CAKI-1, 48 h, read-out: GI
# U-251 = assay: Growth inhibition of human U251 cells at 10 uM after 48 hrs by single dose SRB assay; type: functional; conditions: for inhibition of growth at 10 µM: U-251, 48 h, read-out: GI
# RPMI-8226 = assay: Growth inhibition of human RPMI8226 cells at 10 uM after 48 hrs by single dose SRB assay; type: functional
# UO-31 = assay: Growth inhibition of human UO31 cells at 10 uM after 48 hrs by single dose SRB assay; type: functional; conditions: for inhibition of growth at 10 µM: UO-31, 48 h, read-out: GI
# MDA-MB-468 = assay: Growth inhibition of human MDA-MB-468 cells at 10 uM after 48 hrs by single dose SRB assay; type: functional; conditions: for inhibition of growth at 10 µM: MDA-MB-468, 48 h, read-out: GI
# NCI/ADR-RES = assay: Growth inhibition of human NCI/ADR-RES cells at 10 uM after 48 hrs by single dose SRB assay; type: functional; conditions: for inhibition of growth at 10 µM: read-out: GI
# UACC-62 = assay: Growth inhibition of human UACC62 cells at 10 uM after 48 hrs by single dose SRB assay; type: functional; conditions: for inhibition of growth at 10 µM: UACC-62, 48 h, read-out: GI
# SF-295 = assay: Growth inhibition of human SF295 cells at 10 uM after 48 hrs by single dose SRB assay; type: functional
# LOX IMVI = assay: Growth inhibition of human LOXIMVI cells at 10 uM after 48 hrs by single dose SRB assay; type: functional
# SNB-19 = assay: Growth inhibition of human SNB19 cells at 10 uM after 48 hrs by single dose SRB assay; type: functional
# NCI-H522 = assay: Growth inhibition of human NCI-H522 cells at 10 uM after 48 hrs by single dose SRB assay; type: functional; conditions: for inhibition of growth at 10 µM: NCI-H522, 48 h, read-out: GI
# NCI-H226 = assay: Growth inhibition of human NCI-H226 cells at 10 uM after 48 hrs by single dose SRB assay; type: functional; conditions: for inhibition of growth at 10 µM: NCI-H226, 48 h, read-out: GI
# SW-620 = assay: Growth inhibition of human SW620 cells at 10 uM after 48 hrs by single dose SRB assay; type: functional
# A498 = assay: Growth inhibition of human A498 cells at 10 uM after 48 hrs by single dose SRB assay; type: functional; conditions: A498, 48 h, read-out: GI
# HCT166 = assay: as §1; type: functional
# HOP-92 = assay: Growth inhibition of human HOP92 cells at 10 uM after 48 hrs by single dose SRB assay; type: functional; conditions: for inhibition of growth at 10 µM: HOP-92, 48 h, read-out: GI
# PC-3 = assay: Growth inhibition of human PC3 cells at 10 uM after 48 hrs by single dose SRB assay; type: functional; conditions: PC-3, 48 h, read-out: GI
structure (smiles),measurement,setting,value
CCOC(=O)C1=NN(C(=O)CN2c3ccccc3Sc3ccccc32)C(O)(c2ccccc2)C1 (configuration not stated),inhibition,[1],30.7%
Cc1c2c(nn1CC(=O)N1c3ccccc3Sc3ccccc31)CCCC2=O,inhibition,[1],46.6%
CCOC(=O)C1=NN(C(=O)CCN2c3ccccc3Sc3ccccc32)C(O)(c2ccccc2)C1 (configuration not stated),inhibition,[1],22.8%
Cc1c2c(nn1CC(=O)N1c3ccccc3Sc3ccccc31)CCCC2,growth inhibition (GI),EKVX,inactive
same,growth inhibition (GI),SK-MEL-5,inactive
same,inhibition of growth at 10 µM,HCT-15,8%
same,growth inhibition (GI),MDA-MB-231,inactive
same,inhibition,[1],0%
same,inhibition of growth at 10 µM,SN12C,5.6%
same,growth inhibition (GI),OVCAR-3,inactive
same,inhibition of growth at 10 µM,[2],8.4%
same,growth inhibition (GI),HL-60(TB),inactive
same,inhibition of growth at 10 µM,MOLT-4,20.1%
same,growth inhibition (GI),ACHN,inactive
same,inhibition of growth at 10 µM,CCRF-CEM,6.5%
same,growth inhibition (GI),HT-29,inactive
same,growth inhibition (GI),OVCAR-8,inactive
same,inhibition of growth at 10 µM,CAKI-1,8.1%
same,inhibition of growth at 10 µM,U-251,10.2%
same,inhibition of growth at 10 µM,"RPMI-8226; RPMI-8226, 48 h, read-out: GI",16.2%
same,inhibition of growth at 10 µM,UO-31,10%
same,growth inhibition (GI),MDA-MB-468,inactive
same,inhibition of growth at 10 µM,NCI/ADR-RES,6.2%
same,inhibition of growth at 10 µM,UACC-62,13.2%
same,growth inhibition (GI),SF-295,inactive
same,growth inhibition (GI),LOX IMVI,inactive
same,growth inhibition (GI),SNB-19,inactive
same,inhibition of growth at 10 µM,NCI-H522,15.2%
same,growth inhibition (GI),NCI-H226,inactive
same,growth inhibition (GI),SW-620,inactive
CCOC(=O)c1cc(-c2ccccc2)nn1CC(=O)N1c2ccccc2Sc2ccccc21,inhibition,[1],0%
Cc1cc(-c2ccccc2)n(CC(=O)N2c3ccccc3Sc3ccccc32)n1,inhibition,[1],0%
Cc1c2c(nn1C(=O)CN1c3ccccc3Sc3ccccc31)CCCC2,inhibition,[1],0%
CCOC(=O)c1cnn(CC(=O)N2c3ccccc3Sc3ccccc32)c1N,inhibition of growth at 10 µM,EKVX,5.3%
same,inhibition of growth at 10 µM,"SK-MEL-5; SK-MEL-5, 48 h, read-out: GI",6.9%
same,inhibition of growth at 10 µM,HCT-15,25.4%
same,growth inhibition (GI),MDA-MB-231,inactive
same,inhibition,[1],24.8%
same,growth inhibition (GI),SN12C,inactive
same,growth inhibition (GI),OVCAR-3,inactive
same,inhibition of growth at 10 µM,A498,11.8%
same,growth inhibition (GI),HCT166,inactive
same,growth inhibition (GI),HOP-92,inactive
same,inhibition of growth at 10 µM,PC-3,21.3%
same,inhibition of growth at 10 µM,HL-60(TB),83.2%
same,inhibition of growth at 10 µM,MOLT-4,7.6%
same,growth inhibition (GI),ACHN,inactive
same,growth inhibition (GI),CCRF-CEM,inactive
same,inhibition of growth at 10 µM,"HT-29; HT-29, 48 h, read-out: GI",13.2%
same,growth inhibition (GI),OVCAR-8,inactive
same,inhibition of growth at 10 µM,CAKI-1,16%
same,growth inhibition (GI),U-251,inactive
same,growth inhibition (GI),RPMI-8226,inactive
same,inhibition of growth at 10 µM,UO-31,13.3%
same,inhibition of growth at 10 µM,MDA-MB-468,15.3%
same,growth inhibition (GI),NCI/ADR-RES,inactive
same,inhibition of growth at 10 µM,UACC-62,6.3%
same,inhibition of growth at 10 µM,"SF-295; SF-295, 48 h, read-out: GI",6.7%
same,growth inhibition (GI),LOX IMVI,inactive
same,growth inhibition (GI),SNB-19,inactive
same,inhibition of growth at 10 µM,NCI-H522,31.9%
same,inhibition of growth at 10 µM,NCI-H226,8.1%
same,growth inhibition (GI),SW-620,inactive
Cc1c2c(nn1C(=O)CCN1c3ccccc3Sc3ccccc31)CCCC2,inhibition of growth at 10 µM,EKVX,8.3%
same,growth inhibition (GI),SK-MEL-5,inactive
same,growth inhibition (GI),HCT-15,inactive
same,growth inhibition (GI),MDA-MB-231,inactive
same,inhibition,[1],0%
same,growth inhibition (GI),SN12C,inactive
same,growth inhibition (GI),OVCAR-3,inactive
same,inhibition of growth at 10 µM,[2],12.4%
same,inhibition of growth at 10 µM,HOP-92,31.6%
same,inhibition of growth at 10 µM,PC-3,13%
same,inhibition of growth at 10 µM,HL-60(TB),19.6%
same,growth inhibition (GI),MOLT-4,inactive
same,growth inhibition (GI),ACHN,inactive
same,inhibition of growth at 10 µM,CCRF-CEM,12.8%
same,growth inhibition (GI),HT-29,inactive
same,growth inhibition (GI),OVCAR-8,inactive
same,growth inhibition (GI),CAKI-1,inactive
same,growth inhibition (GI),U-251,inactive
same,growth inhibition (GI),RPMI-8226,inactive
same,growth inhibition (GI),UO-31,inactive
same,inhibition of growth at 10 µM,MDA-MB-468,11.2%
same,inhibition of growth at 10 µM,NCI/ADR-RES,8.2%
same,inhibition of growth at 10 µM,UACC-62,7.1%
same,growth inhibition (GI),SF-295,inactive
same,growth inhibition (GI),LOX IMVI,inactive
same,growth inhibition (GI),SNB-19,inactive
same,inhibition of growth at 10 µM,NCI-H522,9.1%
same,inhibition of growth at 10 µM,NCI-H226,12.8%
same,growth inhibition (GI),SW-620,inactive
Cc1c2c(nn1C(=O)CN1c3ccccc3Sc3ccccc31)CCCC2=O,inhibition,[1],0%
Cc1c2c(nn1C(=O)CCN1c3ccccc3Sc3ccccc31)CCCC2=O,inhibition,[1],19.5%
N#Cc1cnn(C(=O)CCN2c3ccccc3Sc3ccccc32)c1N,inhibition,[1],4.7%
Cc1cc(-c2ccccc2)n(C(=O)CN2c3ccccc3Sc3ccccc32)n1,inhibition of growth at 10 µM,EKVX,5%
same,growth inhibition (GI),SK-MEL-5,inactive
same,growth inhibition (GI),HCT-15,inactive
same,growth inhibition (GI),MDA-MB-231,inactive
same,inhibition,[1],0%
same,inhibition of growth at 10 µM,SN12C,7.2%
same,growth inhibition (GI),OVCAR-3,inactive
same,inhibition of growth at 10 µM,A498,17.3%
same,growth inhibition (GI),HCT166,inactive
same,inhibition of growth at 10 µM,HOP-92,14%
same,inhibition of growth at 10 µM,PC-3,13%
same,inhibition of growth at 10 µM,HL-60(TB),31.5%
same,inhibition of growth at 10 µM,MOLT-4,9.6%
same,growth inhibition (GI),ACHN,inactive
same,growth inhibition (GI),CCRF-CEM,inactive
same,growth inhibition (GI),HT-29,inactive
same,inhibition of growth at 10 µM,"OVCAR-8; OVCAR-8, 48 h, read-out: GI",6.3%
same,inhibition of growth at 10 µM,CAKI-1,16.2%
same,inhibition of growth at 10 µM,U-251,9.2%
same,growth inhibition (GI),RPMI-8226,inactive
same,inhibition of growth at 10 µM,UO-31,9%
same,growth inhibition (GI),MDA-MB-468,inactive
same,growth inhibition (GI),NCI/ADR-RES,inactive
same,growth inhibition (GI),UACC-62,inactive
same,growth inhibition (GI),SF-295,inactive
same,growth inhibition (GI),LOX IMVI,inactive
same,growth inhibition (GI),SNB-19,inactive
same,growth inhibition (GI),NCI-H522,inactive
same,inhibition of growth at 10 µM,NCI-H226,7.2%
same,growth inhibition (GI),SW-620,inactive
Cc1cc(C)n(CC(=O)N2c3ccccc3Sc3ccccc32)n1,inhibition,[1],22.4%
CCOC(=O)c1cc(-c2ccccc2)n(CC(=O)N2c3ccccc3Sc3ccccc32)n1,inhibition,[1],0%
